Tests used:
[1] = Solubility testing of lubricants, additives and impurities in deposition solvents; format: physicochemical
Experimental: A disposable glass vial was placed on a four-place balance and the mass (MV) recorded. The balance with the glass vial was tared and deposition solvent was added (varying from 1 g to 5 g) and the mass (MS) was recorded. The balance with the deposition solvent in the glass vial was tared again. The lubricant was added in a dropwise fashion using a disposable plastic pipet and the mass (ML) recorded. The glass vial was then mixed by hand for 10 seconds to 30 seconds and the solution clarity was visually observed and recorded. If the solution was hazy, the lubricant was considered to have exceeded the solubility limit of the deposition solvent. If the solution was clear, additional drops of lubricant were added to the glass vial, the mass (ML) was recorded, the glass vial was shaken, and the solution clarity was observed. This process was continued until a hazy solution was observed or more than 10% w/w (weight of lubricant to combined weight of lubricant and deposition solvent) was reached. After a hazy solution or more than 10% w/w was reached, the glass vial with the solution was removed from the balance. The balance was tared and the final mass (MF) of the glass vial with deposition solvent and lubricant was measured and recorded. To account for the evaporative losses of the deposition solvent during the experiment, the mass of the vial and the mass of the lubricant added were subtracted from the total mass of the vial with the deposition solvent and lubricant to determine the final mass of deposition solvent (MS*) in the vial (i.e., MS*=MF−MV−ML). Solubility of the lubricant in deposition solvents was calculated as ML/(ML+MS*) and reported in % w/w (weight/weight).
If the endpoint was not clearly observed, the solubility experiment was repeated. Where a range is reported for solubility, the lower number is the highest soluble value and the higher number is the lowest insoluble value.

[2] = tested on: rats; assay: Short-term inhalation test (acute toxicity); format: in vivo; settings: rats exposed for four hours at 50,000 ppm in air

CCCCCCCCOC(=O)c1ccccc1C(=O)OCCCCCCCC [DOP, Dioctylphthlate]
Solubility in C6 Oxirane [1]: <0.9%
Solubility in C9 Oxirane [1]: <1.1%
Solubility in NOVEC 7100 [1]: 5.1%
Solubility in PF-5060DL [1]: <0.005%
Solubility in VERTREL XF [1]: >30%

FC(F)(F)C1(F)OC1(F)C(F)(C(F)(F)F)C(F)(F)F (stereo not drawn) [C6 Oxirane, 2,3-difluoro-2-(1,2,2,2-tetrafluoro-1-trifluoromethyl-ethyl)-3-trifluoromethyl-oxirane]
acute toxicity, short-term inhalation [2]: low acute toxicity

From patent US20140093641A1, “LUBRICANT COMPOSITIONS CONTAINING FLUOROOXIRANES” (3MM INNOVATIVE PROPERTIES COMPANY, priority 2011, published 2014)
